Reference: article PMC6112376, “Comprehensive Analyses and Prioritization of Tox21 10K Chemicals Affecting Mitochondrial Function by in-Depth Mechanistic Studies” (Environmental Health Perspectives, 2018)
Where a name gives a salt, the structure may show the parent alone. Read-outs that look alike come from different tables or passages of the source.

Key:
HepG2 cells [1] = assay: cells; conditions: Homo sapiens; for IC50: HepG2, read-out: MMP assays IC50 (µM) HepG2; for Emax: HepG2, read-out: MMP assays efficacy (%) HepG2
HepG2 cells [2] = conditions: cited from earlier work; for IC50: read-out: MMP assays IC50 (µM) qHTS-HepG2
rat primary hepatocytes = assay: MMP assay in rat primary hepatocytes; conditions: for IC50: Rattus norvegicus, Hepatocyte, read-out: MMP assays IC50 (µM) Rat Hepatocytes; for MMP assays efficacy (%) Rat Hepatocytes / MMP assays IC50 (µM) Rat Hepatocytes: mean ± SD of three experiments

SMILES	IC50 (HepG2 cells [1]) [µM]	Emax (HepG2 cells [1]) [%]	MMP assays efficacy (%) qHTS-HepG2 (HepG2 cells [2]) [%]	IC50 (HepG2 cells [2]) [µM]	IC50 (rat primary hepatocytes) [µM]	MMP assays efficacy (%) Rat Hepatocytes (rat primary hepatocytes)	MMP assays IC50 (µM) Rat Hepatocytes (rat primary hepatocytes)
O=c1cc(-c2ccccc2)oc2cc(O)cc(O)c12 [Chrysin]	7.08	105	-103±9	5.05 ± 2.76	30.6 ± 28.4	-78±36%	–
CC(C)C(=O)OCC(=O)[C@@]12O[C@H](C3CCCCC3)O[C@@H]1C[C@H]1[C@@H]3CCC4=CC(=O)C=C[C@]4(C)[C@H]3[C@@H](O)C[C@@]12C [Ciclesonide]	15.5	103	–	7.91 ± 1.38	–	inactive	inactive
COCCOC(=O)C1=C(C)NC(C)=C(C(=O)OC/C=C/c2ccccc2)C1c1cccc([N+](=O)[O-])c1 (centres unmarked) [Cilnidipine]	12.3	109	-104±6	12.5 ± 1.78	14.8 ± 8.07	-75±17%	–
CCC(CC)(CC(=O)Nc1cccc(/C=C/c2nc(C3CCC3)cs2)c1)C(=O)O [Cinalukast]	17.3	96	-92±29	28.8 ± 1.17	13.5 ± 5.36	-67±19%	–
O=C(Nc1ccc(Cl)cc1)Nc1ccc(Cl)c(C(F)(F)F)c1 [Cloflucarban]	0.44	85	-113±9	0.6	0.58 ± 0.05	-95±5%	–
CC(C)(C)CC(C)(C)c1ccc(O)c(Cc2ccc(Cl)cc2Cl)c1 [Clofoctol]	4.35	92	-112±5	1.64 ± 0.13	15.7 ± 6.04	-65±37%	–
Oc1ccc(Cl)c2cccnc12 [Cloxyquin]	15.5	79	-58±10	16.8 ± 5.94	–	inactive	inactive
CC1=NN(c2ccccc2)C(=O)C1 [Compound 1-Phenyl-3-methyl-5-pyrazolone]	28.2	82	-121±16	31.8 ± 4.28	25.8 ± 10.1	-62±9%	–
Nc1ccc([N+](=O)[O-])cc1O [Compound 2-Amino-5-nitrophenol]	35.5	76	-70±18	27.4 ± 14.1	52.1 ± 17.7	-63±37%	–
Oc1ccc(-c2ccccc2)cc1Cl [Compound 2-Chloro-4-phenylphenol]	15.8	99	-138±26	15.4 ± 7.86	31.8 ± 3.65	-109±36%	–
Cc1ccc2c(c1[N+](=O)[O-])C(=O)c1ccccc1C2=O [Compound 2-Methyl-1-nitroanthraquinone]	2.77	88	-63±13	1.34 ± 0.15	16.9 ± 14.7	-84±16%	–
Cc1ccc2c(c1)C(=O)c1ccccc1C2=O [Compound 2-Methylanthraquinone]	11.2	51	-77±13	6.33 ± 1.15	5.97 ± 0.49	-36±2%	–
CCc1ccc(O)c(C(C)(C)C)c1 [Compound 2-tert-Butyl-4-ethylphenol]	15.8	95	-103±6	11.3 ± 2.6	–	inactive	inactive
Cc1ccc(C(C)(C)C)c(O)c1 [Compound 2-tert-Butyl-5-methylphenol]	5.01	95	-96±7	23.5 ± 2.85	40.1 ± 6.5	-66±11%	–
Oc1cccc(Nc2ccccc2)c1 [Compound 3-Hydroxy-N-phenylaniline]	35.5	110	-110±13	28.5 ± 6.04	–	inactive	inactive
Cc1cccc(Nc2ccccc2)c1 [Compound 3-Methyl-N-phenylaniline]	28.2	66	-93±25	48.6 ± 5.61	35.5	-74±25%	–
Nc1ccc(O)c([N+](=O)[O-])c1 [Compound 4-Amino-2-nitrophenol]	14.1	97	-86±33	15.4 ± 10.6	33.5 ± 2.73	-90±12%	–
O=C(c1ccccc1)c1ccc(O)cc1 [Compound 4-Hydroxybenzophenone]	28.2	116	-87±12	41.3 ± 18.1	17.8 ± 28	-82±39%	–
CC(C)(C)c1ccc(O)c(O)c1 [Compound 4-tert-Butylcatechol]	31.6	90	-103±20	34.3 ± 15	–	inactive	inactive
OCc1c2ccccc2cc2ccccc12 [Compound 9-Anthracenemethanol]	19.9	88	-104±23	34.5 ± 11.5	21.7 ± 15.7	-68±25%	–
CC(C)(C)c1cc(/C=C2\SC(N)=NC2=O)cc(C(C)(C)C)c1O [Darbufelone mesylate]	5.62	102	-110±13	11.7 ± 2.02	7.15 ± 5.41	-105±22%	–
CC(=O)Oc1cccc2c1C(=O)c1c(OC(C)=O)cc(C(=O)O)cc1C2=O [Diacerein]	17.3	61	-81±16	20.6 ± 8.26	14.2 ± 11.3	-70±14%	–
CCC(=O)Oc1ccc(/C(CC)=C(\CC)c2ccc(OC(=O)CC)cc2)cc1 [Diethylstilbestrol dipropionate]	7.08	101	-112±3	10.5 ± 2.66	49.3 ± 19.5	-38±22%	–
CC/C(=C(/CC)c1ccc(O)cc1)c1ccc(O)cc1 [Diethylstilbestrol]	–	112	-105±14	–	25.2 ± 21.7	–	–
O=c1c(-c2ccccc2)c1-c1ccccc1 [Diphenylcyclopropenone]	27.5	79	-79±6	25.6 ± 1.67	–	inactive	inactive
CCCCCCCCCCCCOC(=O)c1cc(O)c(O)c(O)c1 [Dodecyl gallate]	7.94	100	-99±8	4.75 ± 1.81	48.7 ± 8.3	-65±17%	–
